{
  "source": "patent US12252701B2",
  "about": "“Chimeric antigen receptor T cell therapy” (KITE PHARMA, INC., priority 2020, dated 2025)",
  "key": {"[1]": {"test_system": "phospho-STAT panel (pSTAT3/4/5), CD3+ T cells", "test": "phospho-STAT induction by IL-6, MesoScale Discovery phospho-STAT panel", "assay_type": "cell-based, human", "settings": "CD3+ T cells; for pSTAT3: MSD signal (No stim. 689, IL-6 alone 33641); for pSTAT4: MSD signal (No stim. 1964, IL-6 alone 15405); for pSTAT5: MSD signal (No stim. 9210, IL-6 alone 17743)", "experimental": "CD19 CAR-T, PBMC or CD3+ T cells (AllCells) were thawed and rested 0/N at 37° C. in R10 media. Cells were seeded at 700,000 cells/well and were either untreated or treated with 100 ng/ml IL6+drug at indicated concentrations for 20 minutes at 37° C. The cells were then washed with cold PBS and followed by 60 μl of Tris lysis buffer (provided by MSD) for 30 minutes on ice. Lysates were collected by spin down for 10 minutes at >10,000 rpm. 25 μl/well per condition was used for MesoScale Discovery (MSD) assay using the phospho-STAT panel (pSTAT3/4/5) from MesoScale Discovery following the manufacturer's protocol. pSTAT panel plates were blocked with 150 μl of blocker A solution for 1 hr at RT with shaking. Plates were washed three times with 1× Tris wash buffer. 25 μl of lysate samples were added per well, incubated 2 hr at room temperature or at 4° C. overnight. Plates were washed 3 times with 1× tris wash buffer and then 25 μl of detection antibody solution were added to each well and incubated for 1 hr at room temperature with shaking. Plates were washed and 1× read buffer added to each well and plates were read on the MSD instrument."}, "[2]": {"test": "in vitro", "settings": "human, CAR-T cells"}, "[3]": {"test_system": "NALM6.GFP.LUC.CD19 target cells"}, "[4]": {"test": "Clinical pharmacokinetic data converted to in vitro concentrations", "settings": "human, in vivo", "excerpt": "Given the different potencies of the JAK inhibitors and different pharmacokinetic properties for each drug, it was sought to test each drug at a relevant range of physiological concentrations based on clinical dosing and reported pharmacokinetic data from repeat dose studies. Reported Cmax values in patient sera were converted to in vitro concentrations and adjusted for reported plasma protein binding."}, "[5]": {"test_system": "CAR-T cells", "test": "CAR-T cell expansion assay (KIP-1 or CD3/CD28 stimulation)", "settings": "CD3/CD28"}, "[6]": {"settings": "plasma protein binding, reported; cited from earlier work"}, "[7]": {"test_system": "CD19 CAR T cells", "test": "CAR T cell cytokine production (Luminex) under CD19 K562, KIP-1 or CD2/3/28 stimulation", "settings": "72 h", "description": "Cryopreserved healthy donor CLP CD19 CAR T cells were thawed and rested overnight in 100 U/ml of IL-2 at 1×10^6/ml. 2.5×10^5 CD19 CART cells were plated in 96-well RB plate wells in a total volume of 200 μl of R10 culture media. […] CD19 CART cell cytokine production was allowed to proceed through 72 hours in the presence of stimulator and JAKi or steroid. Following 72 h of culture, 100 μl of the cell supernatant of each well were harvested and stored at −80° C. for later Luminex/Bioplex-200 cytokine analysis. Briefly, stored supernatants were thawed and 50 μl of the sample was assayed for cytokines using a ThermoFisher Procarta Plex 19-plex human cytokine assay kit (ThermoFisher, Carlsbad, CA) according to kit manufacturer's instructions and detected using a BioRad Bioplex-200 instrument. The data points generated from the luminex cytokine assay were transferred to a GraphPad PRISM IC50 dose-response curve analysis to generate IC50 or potency values for the JAKi's and steroids tested."}, "[8]": {"settings": "100 ng/ml IL-6 + drug 10 uM, 20 min"}},
  "note": "Like-named read-outs stand apart in the source and are kept apart here.",
  "data": [
    {"smiles": "C[C@H]1C[C@@H]2[C@H]([C@@H](O)C[C@@]3(C)[C@H]2CC[C@]3(O)C(=O)CO)[C@@]2(C)C=CC(=O)C=C12", "note": "[methylprednisolone]", "values": [
      {"measurement": "pSTAT3", "setting": "[1]; [8]", "result": 25867},
      {"measurement": "pSTAT4", "setting": "[1]; [8]", "result": 11225},
      {"measurement": "pSTAT5", "setting": "[1]; [8]", "result": 14781},
      {"measurement": "pSTAT3", "setting": "[1]; IL-6 + drug 0.125 uM", "result": 30520},
      {"measurement": "pSTAT4", "setting": "[1]; IL-6 + drug 0.125 uM", "result": 14740},
      {"measurement": "pSTAT5", "setting": "[1]; IL-6 + drug 0.125 uM", "result": 18739},
      {"measurement": "pSTAT3", "setting": "[1]; IL-6 + drug 0.5 uM", "result": 30901},
      {"measurement": "pSTAT4", "setting": "[1]; IL-6 + drug 0.5 uM", "result": 14903},
      {"measurement": "pSTAT5", "setting": "[1]; IL-6 + drug 0.5 uM", "result": 20208},
      {"measurement": "pSTAT3", "setting": "[1]; IL-6 + drug 1 uM", "result": 28287},
      {"measurement": "pSTAT4", "setting": "[1]; IL-6 + drug 1 uM", "result": 14989},
      {"measurement": "pSTAT5", "setting": "[1]; IL-6 + drug 1 uM", "result": 18668},
      {"measurement": "pSTAT3", "setting": "[1]; IL-6 + drug 5 uM", "result": 25433},
      {"measurement": "pSTAT4", "setting": "[1]; IL-6 + drug 5 uM", "result": 11282},
      {"measurement": "pSTAT5", "setting": "[1]; IL-6 + drug 5 uM", "result": 15142},
      {"measurement": "viability at 0 day, 1000 nM", "setting": "[2]", "result": 75, "unit": "%"},
      {"measurement": "viability at 0 day, 5000 nM", "setting": "[2]", "result": 75, "unit": "%"},
      {"measurement": "viability at 4 day, 1000 nM", "setting": "[2]", "result": 58.1, "unit": "%"},
      {"measurement": "viability at 4 day, 5000 nM", "setting": "[2]", "result": 49.4, "unit": "%"},
      {"measurement": "viability at 8 day, 1000 nM", "setting": "[2]", "result": 69.1, "unit": "%"},
      {"measurement": "viability at 8 day, 5000 nM", "setting": "[2]", "result": 66, "unit": "%"},
      {"measurement": "viability at 12 day, 1000 nM", "setting": "[2]", "result": 76.3, "unit": "%"},
      {"measurement": "viability at 12 day, 5000 nM", "setting": "[2]", "result": 71.9, "unit": "%"},
      {"measurement": "impact on CAR-T serial killing (percent cytotoxicity)", "setting": "[3]", "result": "differential impacts"},
      {"measurement": "PPB adj. in Vitro concentration (free)", "setting": "[4]", "result": 670, "unit": "nM"},
      {"measurement": "PPB adj. in Vitro concentration (total)", "setting": "[4]", "result": 2.56, "unit": "µM"},
      {"measurement": "clinically relevant dose level (in vitro concentration)", "setting": "[4]", "result": "~2.5", "unit": "µM"},
      {"measurement": "Cmax", "setting": "[4]; 100 mg", "result": 960, "unit": "ng/mL"},
      {"measurement": "Cmax (ng/ml) (free)", "setting": "[4]; 100 mg", "result": 251, "unit": "ng/mL"},
      {"measurement": "% viability", "setting": "[5]; dose 1000 nM, day 4", "result": 44.3, "unit": "%"},
      {"measurement": "% viability", "setting": "[5]; dose 1000 nM, day 12", "result": 62.6, "unit": "%"},
      {"measurement": "% viability", "setting": "[5]; dose 5000 nM, day 4", "result": 46.6, "unit": "%"},
      {"measurement": "% viability", "setting": "[5]; dose 5000 nM, day 8", "result": 59.1, "unit": "%"},
      {"measurement": "% viability", "setting": "[5]; dose 5000 nM, day 12", "result": 58.9, "unit": "%"},
      {"measurement": "Protein binding", "setting": "[6]", "result": 78, "unit": "%"}
    ]},
    {"smiles": "C[C@H]1C[C@@H]2[C@H]([C@@H](O)C[C@@]3(C)[C@H]2CC[C@]3(O)C(=O)CO)[C@@]2(C)C=CC(=O)C=C12", "note": "[Methlyprednisolone]", "values": [
      {"measurement": "Suppression of cytokine production, IL-6 (IC50)", "setting": "[7]; CD3/CD28 stimulation", "result": "Suppress"},
      {"measurement": "Suppression of cytokine production, MCP-1, % inh.", "setting": "[7]; CD3/CD28 stimulation", "result": ">80", "unit": "% inh."},
      {"measurement": "Suppression of cytokine production, TNFa, % inh.", "setting": "[7]; CD3/CD28 stimulation", "result": ">50", "unit": "% inh."},
      {"measurement": "Suppression of cytokine production, IL-6 (IC50)", "setting": "[7]; K562-CD19 stimulation", "result": "Suppress"},
      {"measurement": "Suppression of cytokine production, MCP-1 (IC50)", "setting": "[7]; K562-CD19 stimulation", "result": "Suppress"},
      {"measurement": "Suppression of cytokine production, MIG (IC50)", "setting": "[7]; K562-CD19 stimulation", "result": "Suppress"},
      {"measurement": "Suppression of cytokine production, TNFa (IC50)", "setting": "[7]; K562-CD19 stimulation", "result": "Suppress"},
      {"measurement": "Suppression of cytokine production, IL-6, % inh.", "setting": "[7]; KIP-1 stimulation", "result": 66, "unit": "% inh."},
      {"measurement": "Suppression of cytokine production, IL-10, % inh.", "setting": "[7]; KIP-1 stimulation", "result": 50, "unit": "% inh."},
      {"measurement": "Suppression of cytokine production, MCP-1, % inh.", "setting": "[7]; KIP-1 stimulation", "result": 66, "unit": "% inh."},
      {"measurement": "Suppression of cytokine production, MIG, % inh.", "setting": "[7]; KIP-1 stimulation", "result": 50, "unit": "% inh."},
      {"measurement": "Suppression of cytokine production, TNFa, % inh.", "setting": "[7]; KIP-1 stimulation", "result": 75, "unit": "% inh."},
      {"measurement": "IC50", "setting": "[7]; read-out: Suppression of cytokine production, GMCSF (IC50), CD3/CD28 stimulation", "result": "> 10", "unit": "µM"},
      {"measurement": "IC50", "setting": "[7]; read-out: Suppression of cytokine production, GMCSF (IC50), KIP-1 stimulation", "result": "> 10", "unit": "µM"},
      {"measurement": "IC50", "setting": "[7]; read-out: Suppression of cytokine production, GzB (IC50), CD3/CD28 stimulation", "result": "> 10", "unit": "µM"},
      {"measurement": "IC50", "setting": "[7]; read-out: Suppression of cytokine production, GzB (IC50), KIP-1 stimulation", "result": "> 10", "unit": "µM"},
      {"measurement": "IC50", "setting": "[7]; read-out: Suppression of cytokine production, IFNg (IC50), CD3/CD28 stimulation", "result": "> 10", "unit": "µM"},
      {"measurement": "IC50", "setting": "[7]; read-out: Suppression of cytokine production, IFNg (IC50), KIP-1 stimulation", "result": "> 10", "unit": "µM"},
      {"measurement": "IC50", "setting": "[7]; read-out: Suppression of cytokine production, IL-2Ra (IC50), CD3/CD28 stimulation", "result": "> 10", "unit": "µM"},
      {"measurement": "IC50", "setting": "[7]; read-out: Suppression of cytokine production, IL-2Ra (IC50), K562-CD19 stimulation", "result": "> 10", "unit": "µM"},
      {"measurement": "IC50", "setting": "[7]; read-out: Suppression of cytokine production, IL-2Ra (IC50), KIP-1 stimulation", "result": "> 10", "unit": "µM"},
      {"measurement": "IC50", "setting": "[7]; read-out: Suppression of cytokine production, IL-8 (IC50), CD3/CD28 stimulation", "result": "> 10", "unit": "µM"},
      {"measurement": "IC50", "setting": "[7]; read-out: Suppression of cytokine production, IL-8 (IC50), K562-CD19 stimulation", "result": "> 10", "unit": "µM"},
      {"measurement": "IC50", "setting": "[7]; read-out: Suppression of cytokine production, IL-8 (IC50), KIP-1 stimulation", "result": "> 10", "unit": "µM"},
      {"measurement": "IC50", "setting": "[7]; read-out: Suppression of cytokine production, IL-10 (IC50), CD3/CD28 stimulation", "result": "> 10", "unit": "µM"},
      {"measurement": "IC50", "setting": "[7]; read-out: Suppression of cytokine production, MIG (IC50), CD3/CD28 stimulation", "result": "> 10", "unit": "µM"},
      {"measurement": "IC50", "setting": "[7]; read-out: Suppression of cytokine production, MIP-1a (IC50), CD3/CD28 stimulation", "result": "> 10", "unit": "µM"},
      {"measurement": "IC50", "setting": "[7]; read-out: Suppression of cytokine production, MIP-1a (IC50), KIP-1 stimulation", "result": "> 10", "unit": "µM"},
      {"measurement": "IC50", "setting": "[7]; read-out: Suppression of cytokine production, MIP-1b (IC50), CD3/CD28 stimulation", "result": "> 10", "unit": "µM"},
      {"measurement": "IC50", "setting": "[7]; read-out: Suppression of cytokine production, MIP-1b (IC50), KIP-1 stimulation", "result": "> 10", "unit": "µM"},
      {"measurement": "IC50", "setting": "[7]; read-out: Suppression of cytokine production, Perforin (IC50), CD3/CD28 stimulation", "result": "> 10", "unit": "µM"},
      {"measurement": "IC50", "setting": "[7]; read-out: Suppression of cytokine production, Perforin (IC50), KIP-1 stimulation", "result": "> 10", "unit": "µM"}
    ]}
  ]
}
